Measured values reported in patent US5580552A, “7-glycosyloxybenzopyran derivative and antiallergic agent containing the derivative as active ingredient” (priority 1994, dated 1996).

Columns and labels:
[1] = system: experimental asthma model (airway resistance); assay: Effect on experimental asthma model in guinea pigs (airway resistance); assay type: in vivo, guinea pigs (male hartley); conditions: 50 mg/kg oral (TABLE 6); for inhibition in vivo at 50 mg/kg: Cavia porcellus, po, 0.5 h
Procedure: Effect on experimental asthma model in guinea pigs
The asthma is typical allergic disease and we carried out this pharmacological test by well known experimental asthma model in guinea pigs in order to comfirm that the compounds of the present invention suppress the asthma. In the following, the method of the pharmacological test will be explained.
Method: Male hartley guinea pigs were immunized by intraperitoneal injection of saline (1ml) containing 5 mg of ovalbumine (OVA) three times at interval of one week. 2 weeks after final immunization, the animals were challenged by inhalation of 1% OVA-saline solution for 1 minute and then the airway resistance of the animals were measured for 30 minutes with PULMOS-1 (Medical Interface Project Station Inc.) after the inhalation. The compounds of the present invention (test compounds) suspended in 0.5% CMCNa were given orally at a dose of 50 mg/kg. As positive control group, Disodium Cromoglicate (DSCG), well known anti-allergic agent, in saline were injected at a dose of 20 mg/kg into the vein of the animals. As vehicle control group, only 0.5% CMCNa solution were given orally. The inhibition (%) of the airway resistance in vehicle control group was calculated according to equation 5 and the result was shown in TABLE 6. Each experimental group consisted of 5 guinea pigs. [formula]
A: Maximum airway resistance in vehicle control group
B: Maximum airway resistance in test compounds group or positive control group

[2] = system: contact dermatitis induced by picryl chloride; assay: Effect on contact dermatitis induced by picryl chloride in mice; assay type: in vivo; conditions: 50 mg/kg oral, 1 hour before and 16 hours after challenge, 24 hours after challenge; for inhibition in vivo at 50 mg/kg: Mus musculus, po, 24 h, read-out: Inhibition (%) against the increase of ear thickness
Procedure: Effect on contact dermatitis induced by picryl chloride in mice
The delayed type hypersensitization is inhibited by steroid drugs,but can not be effected by known anti-allergic agents. In the following, the method of the pharmacological test will be explained.
Method: Mice, shaved their abdominal skin on previous day, were immunized by applying 0.1 ml of acetone containing 7 mg of picryl chloride to the skin of the abdomen. 7 days after immunization, the thickness of the ear was measured with a dial thickness gauge, then mice were challenged by painting 5 μl of 1% picryl chloride olive oil solution to each side skin of left ear. 24 hours after challenge, the thickness of the left ear was measured again and the increase (%) of thickness was calculated according to equation 2. The compounds of the present invention (test compounds) suspended in 0.5% CMCNa were forcibly administered orally at a dose of 50 mg/kg at 1 hour before and 16 hours after challenge. As vehicle control group, only 0.5% CMCNa solution were administered orally, and as positive control group, Prednisolone, steroid hormone, and Tranilast were administered orally at the doses of 10 mg/kg and 100 mg/kg, respectively.
Increase (%)=(A-B)/B×100 (Equation 2)
A: thickness of the ear at 24 hours after challenge
B: thickness of the ear before challenge
Inhibition (%)=(C-D)/C×100 (equation 3)
C: The increase (%) in vehicle control group
D: The increase (%) in test compounds group or positive control group

[3] = system: homologous passive cutaneous anaphylaxis (PCA) reaction; assay: Effect on homologous passive cutaneous anaphylaxis (PCA) reaction in rats; assay type: in vivo, rats (male wistar); conditions: 50 mg/kg oral, 1 hour before challenge (TABLE 2); for inhibition in vivo at 50 mg/kg: Rattus norvegicus, po, 0.5 h
Procedure: Effect on homologous passive cutaneous anaphylaxis (PCA) reaction in rats.
This experimental animal model is caused by immediate type allergic reaction namely, antigen-antibody reaction. In the following, the method of this pharmacological test will be explained.
Method: Male wistar rats (9 weeks old) were intradermally administered 0.05 ml of anti-serum against dinitrophenylated ascaris (DNP-As) into two sites on the shaved dorsal skin. 48 hours later, 7-glycosyloxybenzopyran derivatives (test compounds) suspended in 0.5% sodium carboxymethylcellulose (CMCNa) were given orally at a dose of 50 mg/kg to the animals. One hour after administration of Test compounds, the animals were induced anaphylaxis by injection of saline (1 ml) dissolving 5 mg of Evans Blue and 1 mg of Trinitrophenylated ascaris (TNP-As) into the tail vein of the animals. 30 minutes after induction of anaphylaxis, animals were anesthetized by ether and killed by bleeding, and were flayed dorsal skin. The determination of extravasated dye was performed according to the method of Katayama et al. (Microbiol. Immunol., Vol.22, P 89-101, 1978). As vehicle control group, only 0.5% CMCNa solution was administered orally, and as positive control group, Tranilast suspended in 0.5% CMCNa was administered orally at a dose of 100 mg/kg to the animals with the same method as the test compounds groups. Each experimental group consisted of 5 rats. [formula]

SMILES	inhibition in vivo at 50 mg/kg [1]	inhibition in vivo at 50 mg/kg [2]	inhibition in vivo at 50 mg/kg [3]	Inhibition (%) of the airway resistance [1]	Inhibition (%) against the increase of ear thickness [2]	Inhibition (%) of PCA reaction [3]
CCCCCCCCCCCCOc1c(O)c(=O)oc2cc(O[C@H]3O[C@H](CO)[C@@H](O)[C@H](O)[C@@H]3O)ccc12 [compound 134]	45.9%	43.7%	41.5%	–	–	–
CCC=CCCOc1c(O)c2ccc(O[C@H]3O[C@H](CO)[C@@H](O)[C@H](O)[C@@H]3O)cc2oc1=O [compound 70]	65.6%	52.1%	51.3%	–	–	–
CC1CCC(Oc2c(O)c(=O)oc3cc(O[C@@H]4O[C@H](CO)[C@@H](O)[C@H](O)[C@H]4O)ccc23)CC1 (stereo partly drawn) [compound 114]	59.7%	47.3%	45.3%	–	–	–
CC1CCC(Oc2c(O)c(=O)oc3cc(O[C@H]4O[C@H](CO)[C@@H](O)[C@H](O)[C@@H]4O)ccc23)CC1 (stereo partly drawn) [compound 136]	51.2%	41.2%	42.2%	–	–	–
CC(C)=CCC/C(C)=C/COc1c(O)c2ccc(O[C@H]3O[C@H](CO)[C@@H](O)[C@H](O)[C@@H]3O)cc2oc1=O [compound 71]	63.2%	47.4%	49.8%	–	–	–
CCCCCCCCCCCCOc1c(O)c2ccc(O[C@H]3O[C@H](CO)[C@@H](O)[C@H](O)[C@@H]3O)cc2oc1=O [compound 66]	54.3%	51.4%	49.3%	–	–	–
COc1c(O)c(=O)oc2cc(O[C@@H]3O[C@H](CO)[C@@H](O)[C@H](O)[C@H]3O)ccc12 [compound 109]	53.1%	43.8%	42.1%	–	–	–
CCCCCCCCCCCCOc1c(O)c2ccc(O[C@@H]3O[C@H](CO)[C@@H](O)[C@H](O)[C@H]3O)cc2oc1=O [compound 41]	70.2%	60.1%	55.4%	–	–	–
CC(C)Oc1c(O)c(=O)oc2cc(O[C@H]3O[C@H](CO)[C@@H](O)[C@H](O)[C@@H]3O)ccc12 [compound 135]	47.1%	44.6%	40.3%	–	–	–
O=c1oc2cc(O[C@@H]3O[C@H](CO)[C@@H](O)[C@H](O)[C@H]3O)ccc2c(OCc2ccccc2)c1O [compound 152]	52.4%	43.2%	41.3%	–	–	–
O=c1oc2cc(O[C@H]3O[C@H](CO)[C@@H](O)[C@H](O)[C@@H]3O)ccc2c(O)c1O [compound 61]	45.2%	43.1%	40.2%	–	–	–
CCCCCCOc1c(OC(C)=O)c(=O)oc2cc(O[C@@H]3O[C@H](COC(C)=O)[C@H](OC(C)=O)[C@H](OC(C)=O)[C@H]3OC(C)=O)ccc12 [compound 15, 3-acetoxy-4-hexyloxy-7-(tetra-O-acetyl-β-D-galactopyranosyloxy)-2H-1-benzopyran-2-one]	42.1%	41.2%	40.1%	–	–	–
CC(C)Oc1c(O)c2ccc(O[C@@H]3O[C@H](CO)[C@H](O)[C@H](O)[C@H]3O)cc2oc1=O [compound 91]	69.5%	59.3%	55.5%	–	–	–
CCCCCCCCCCOc1c(O)c(=O)oc2cc(O[C@@H]3O[C@H](CO)[C@@H](O)[C@H](O)[C@H]3O)ccc12 [compound 154]	–	–	–	59.2%	41.6%	43.2%
